Patent US12404270B2, “Quinazoline derivatives as LPA receptor 2 inhibitors” (CHIESI FARMACEUTICI S.P.A., priority 2019, dated 2025)

Each compound was assayed against T1, human recombinant LPA2 expressed in CHO cells (Homo sapiens, UniProt Q9HBW0) (assay: FLIPR calcium mobilization assay, LPA2 antagonism in CHO-hLPA2 cells). Details: CHO-hLPA2 cells, inhibition of LPA EC80 Ca2+ response, 30 min pre-incubation; read-out: LPA2 IC50.
T1 construct: expressed in transfected cells; host or cells: CHO (CHO-hLPA2 cell line)
T1 sequence (Q9HBW0 whole entry): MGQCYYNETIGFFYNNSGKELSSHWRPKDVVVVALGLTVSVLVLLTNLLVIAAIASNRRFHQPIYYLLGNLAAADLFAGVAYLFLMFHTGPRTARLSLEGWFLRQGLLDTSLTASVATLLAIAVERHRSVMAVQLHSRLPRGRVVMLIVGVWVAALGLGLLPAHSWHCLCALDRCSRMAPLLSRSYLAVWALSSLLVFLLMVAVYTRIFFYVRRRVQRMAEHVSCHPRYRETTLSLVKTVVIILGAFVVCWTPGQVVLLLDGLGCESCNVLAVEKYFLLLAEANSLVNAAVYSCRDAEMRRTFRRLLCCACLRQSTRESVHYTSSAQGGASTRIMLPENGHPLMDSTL
Assay type: cell-based
Procedure: The effectiveness of compounds of the present invention as LPA2 antagonist can be determined at the human recombinant LPA2 expressed in CHO cells, using a FLIPR assay in 384 well format.
CHO-hLPA2 cell lines are cultured in a humidified incubator at 5% CO2 in DMEM/F-12 (1:1) MIXTURE with 2 mM Glutamax, supplemented with 10% of Foetal Bovine Serum, 1 mM Sodium Pyruvate, 11 mM Hepes and 1× Penicillin/Streptomycin. CHO hLPA2 cells are seeded into black walled clear-bottom 384-well plates (#781091, Greiner Bio-One GmbH) at a density of 7,500 cells per well in 50 μl culture media and grown overnight in a 37° C. humidified CO2-incubator. Serial dilutions (1:3 or 1:4, 11 points CRC) of compounds are performed in 100% DMSO at 200× the final concentration. The compounds are diluted 1:50 prior to the experiment with Assay Buffer (20 mM HEPES, 145 mM NaCl, 5 mM KCl, 5.5 mM glucose, 1 mM MgCl2 and 2 mM CaCl2, pH 7.4 containing 0.01% Pluronic F-127) to obtain a solution corresponding to […] the final concentration in the assay (4×, 2% DMSO). The final concentration of DMSO in the assay will be 0.5% in each well. Medium is removed by aspiration and cells are then incubated with 30 μl of a loading solution containing 5 μM of the cytoplasmic Ca2+ indicator Cal-520 AM in Assay Buffer containing 2.5 mM probenecid for 30 min at 37° C. incubator (cell loading). The loaded cell plates are transferred into the FLIPR instrument and calcium responses are monitored during the on-line addition protocols. For testing of compounds, after the cell loading, 10 μl/well of 4× antagonists' solution was added onto the cells. […] Intracellular peak fluorescence values subtracted by baseline fluorescence are exported and analysed to determine IC50 values, respectively. The calcium response is expressed as percentage of the maximal inhibition of the EC80 agonist response.
The raw data (peak height expressed as relative fluorescence units) are normalized and transformed into “percent of inhibition”. Curve fitting and pIC50 (−Log IC50) estimations are carried out using a four-parameter logistic model using XLfit Software.

Structure (SMILES)	IC50 [nM]
Cc1noc(-c2ccc(S(=O)(=O)N3CCN(C[C@H](C)Nc4ncnc5c(C(=O)N6CC7CC7C6)cccc45)CC3)s2)c1C (mixture of isomers) [Example 85, 8-{3-azabicyclo[3.1.0]hexane-3-carbonyl}-N-[(2S)-1-(4-{[5-(3,4-dimethyl-1,2-oxazol-5-yl)thiophen-2-yl]sulfonyl}piperazin-1-yl)propan-2-yl]quinazolin-4-amine]	< 10
Cc1noc(-c2ccc(S(=O)(=O)N3CCN(C[C@H](C)Nc4ncnc5c(C(=O)N6CCC[C@@H]6C)cccc45)CC3)s2)c1C (racemic) [Example 86, N-[(2S)-1-(4-{[5-(3,4-dimethyl-1,2-oxazol-5-yl)thiophen-2-yl]sulfonyl}piperazin-1-yl)propan-2-yl]-8-[(2S)-2-methylpyrrolidine-1-carbonyl]quinazolin-4-amine]	< 10
CC(=O)Nc1cc(F)c(S(=O)(=O)N2CCN(C[C@H](C)Nc3ncnc4c(C(F)(F)F)cccc34)CC2)cc1Cl [Example 42, N-[2-chloro-5-fluoro-4-({4-[(2S)-2-{[8-(trifluoromethyl)quinazolin-4-yl]amino}propyl]piperazin-1-yl}sulfonyl)phenyl]acetamide]	< 1000
COC(=O)Nc1nc(C)c(S(=O)(=O)N2CCN(C[C@H](C)Nc3ncnc4c(C(=O)N5CC6CC6C5)cccc34)CC2)s1 (mixture of isomers) [Example 87, methyl N-[5-({4-[(2S)-2-[(8-{3-azabicyclo[3.1.0]hexane-3-carbonyl}quinazolin-4-yl)amino]propyl]piperazin-1-yl}sulfonyl)-4-methyl-1,3-thiazol-2-yl]carbamate]	10 to 100
COC(=O)N(C)c1nc(C)c(S(=O)(=O)N2CCN(C[C@H](C)Nc3ncnc4c(C(F)(F)F)cccc34)CC2)s1 [Example 89, methyl N-methyl-N-[4-methyl-5-({4-[(2S)-2-{[8-(trifluoromethyl)quinazolin-4-yl]amino}propyl]piperazin-1-yl}sulfonyl)-1,3-thiazol-2-yl]carbamate]	10 to 100
C[C@@H](CN1CCN(S(=O)(=O)c2ccc(-c3ccon3)s2)CC1)Nc1ncnc2c(C(F)(F)F)cccc12 [Example 53, N-[(2S)-1-(4-{[5-(1,2-oxazol-3-yl)thiophen-2-yl]sulfonyl}piperazin-1-yl)propan-2-yl]-8-(trifluoromethyl)quinazolin-4-amine]	10 to 100
Cc1noc(-c2ccc(S(=O)(=O)N3CCN(C[C@H](C)Nc4ncnc5c(C(=O)N6CCC[C@@H]6C(F)(F)F)cccc45)CC3)s2)c1C (racemic) [Example 76, N-[(2S)-1-(4-{[5-(3,4-dimethyl-1,2-oxazol-5-yl)thiophen-2-yl]sulfonyl}piperazin-1-yl)propan-2-yl]-8-[(2R)-2-(trifluoromethyl)pyrrolidine-1-carbonyl]quinazolin-4-amine]	< 10
COC(=O)Nc1nc(C)c(S(=O)(=O)N2CCN(C[C@H](C)Nc3ncnc4c([N+](=O)[O-])cccc34)CC2)s1 [Example 55, methyl N-[4-methyl-5-({4-[(2S)-2-[(8-nitroquinazolin-4-yl)amino]propyl]piperazin-1-yl}sulfonyl)-1,3-thiazol-2-yl]carbamate]	< 1000
Cc1noc(-c2ccc(S(=O)(=O)N3CCN(C[C@H](C)Nc4ncnc5c(CN(C)C)cccc45)CC3)s2)c1C [Example 74, N-[(2S)-1-(4-{[5-(3,4-dimethyl-1,2-oxazol-5-yl)thiophen-2-yl]sulfonyl}piperazin-1-yl)propan-2-yl]-8-[(dimethylamino)methyl]quinazolin-4-amine]	< 1000
COC(=O)Nc1ncc(S(=O)(=O)N2CCN(C[C@H](C)Nc3ncnc4c(C(F)(F)F)cccc34)CC2)s1 [Example 26, methyl N-[5-({4-[(2S)-2-{[8-(trifluoromethyl)quinazolin-4-yl]amino}propyl]piperazin-1-yl}sulfonyl)-1,3-thiazol-2-yl]carbamate]	< 1000
COC(=O)Nc1nc(C)c(S(=O)(=O)N2CCN(C[C@H](C)Nc3nc(C(F)(F)F)nc4ccccc34)CC2)s1 [Example 11, methyl N-[4-methyl-5-({4-[(2S)-2-{[2-(trifluoromethyl)quinazolin-4-yl]amino}propyl]piperazin-1-yl}sulfonyl)-1,3-thiazol-2-yl]carbamate]	< 1000
Cc1cc(-c2ccc(S(=O)(=O)N3CCN(C[C@H](C)Nc4ncnc5c(N(C)C)cccc45)CC3)s2)on1 [Example 96, N8,N8-dimethyl-N4-[(2S)-1-(4-{[5-(3-methyl-1,2-oxazol-5-yl)thiophen-2-yl]sulfonyl}piperazin-1-yl)propan-2-yl]quinazoline-4,8-diamine]	< 10
COC(=O)Nc1nc(C)c(S(=O)(=O)N2CCN(C[C@H](C)Nc3ncnc4c(OC(F)(F)F)cccc34)CC2)s1 [Example 3, Methyl N-[4-methyl-5-({4-[(2S)-2-{[8-(trifluoromethoxy)quinazolin-4-yl]amino}propyl]piperazin-1-yl}sulfonyl)-1,3-thiazol-2-yl]carbamate]	10 to 100
C[C@@H](CN1CCN(S(=O)(=O)c2cc(-c3ccno3)cs2)CC1)Nc1ncnc2c(C(F)(F)F)cccc12 [Example 71, N-[(2S)-1-(4-{[4-(1,2-oxazol-5-yl)thiophen-2-yl]sulfonyl}piperazin-1-yl)propan-2-yl]-8-(trifluoromethyl)quinazolin-4-amine]	10 to 100
COC(=O)c1cccc2c(N[C@@H](C)CN3CCN(S(=O)(=O)c4ccc(-c5ccno5)s4)CC3)ncnc12 [Example 16, methyl 4-{[(2S)-1-(4-{[5-(1,2-oxazol-5-yl)thiophen-2-yl]sulfonyl}piperazin-1-yl)propan-2-yl]amino}quinazoline-8-carboxylate]	10 to 100
C[C@@H](CN1CCN(S(=O)(=O)c2ccc(-c3ccno3)o2)CC1)Nc1ncnc2c(C(F)(F)F)cccc12 [Example 54, N-[(2S)-1-(4-{[5-(1,2-oxazol-5-yl)furan-2-yl]sulfonyl}piperazin-1-yl)propan-2-yl]-8-(trifluoromethyl)quinazolin-4-amine]	< 1000
Cc1noc(-c2ccc(S(=O)(=O)N3CCN(C[C@H](C)Nc4ncnc5c(C(=O)N(C)C)cccc45)CC3)s2)c1C [Example 43, 4-{[(2S)-1-(4-{[5-(3,4-dimethyl-1,2-oxazol-5-yl)thiophen-2-yl]sulfonyl}piperazin-1-yl)propan-2-yl]amino}-N,N-dimethylquinazoline-8-carboxamide]	< 10
Cc1cc(-c2ccc(S(=O)(=O)N3CCN(C[C@H](C)Nc4ncnc5c(OC(=O)N(C)C)cccc45)CC3)s2)on1 [Example 91, 4-{[(2S)-1-(4-{[5-(3-methyl-1,2-oxazol-5-yl)thiophen-2-yl]sulfonyl}piperazin-1-yl)propan-2-yl]amino}quinazolin-8-yl N,N-dimethylcarbamate]	10 to 100
Cc1cc(-c2ccc(S(=O)(=O)N3CCN(C[C@H](C)Nc4ncnc5c(C(F)(F)F)cccc45)CC3)o2)on1 [Example 52, N-[(2S)-1-(4-{[5-(3-methyl-1,2-oxazol-5-yl)furan-2-yl]sulfonyl}piperazin-1-yl)propan-2-yl]-8-(trifluoromethyl)quinazolin-4-amine]	10 to 100
C[C@@H](CN1CCN(S(=O)(=O)c2ccc(Cl)c(Cl)c2)CC1)Nc1ncnc2c(Cl)cccc12 [Example 6, 8-chloro-N-[(2S)-1-[4-(3,4-dichlorobenzenesulfonyl)piperazin-1-yl]propan-2-yl]quinazolin-4-amine]	< 1000
Cc1noc(-c2ccc(S(=O)(=O)N3CCN(C[C@H](C)Nc4ncnc5c(C(F)(F)F)cccc45)CC3)o2)c1C [Example 68, N-[(2S)-1-(4-{[5-(3,4-dimethyl-1,2-oxazol-5-yl)furan-2-yl]sulfonyl}piperazin-1-yl)propan-2-yl]-8-(trifluoromethyl)quinazolin-4-amine]	10 to 100
CC(=O)Nc1ccc(S(=O)(=O)N2CCN(C[C@H](C)Nc3ncnc4c(C(F)(F)F)cccc34)CC2)s1 [Example 90, N-[5-({4-[(2S)-2-{[8-(trifluoromethyl)quinazolin-4-yl]amino}propyl]piperazin-1-yl}sulfonyl)thiophen-2-yl]acetamide]	< 1000

Same assay, conditions: same in vitro assay as Table 2; read-out: IC50 on LPA2 receptor

Structure (SMILES)	IC50 [nM]
COC(=O)Nc1nc(C)c(S(=O)(=O)N2CCN(C[C@H](C)Nc3ncnc4ncccc34)CC2)s1 [comparative Example A, Methyl (S)-(4-methyl-5-((4-(2-(pyrido[2,3-d]pyrimidin-4 ylamino)propyl)piperazin-1-yl)sulfonyl)thiazol-2-yl)carbamate, reference compound]	> 3000
